Measured values from publication PMC10692721, “Drug discovery for heart failure targeting myosin-binding protein C” (The Journal of Biological Chemistry, 2023).
Like-named read-outs stand apart in the source and are kept apart here.

Experiments:
TMR-cC0-C2 = assay: Selleck library HTS, 532 nm excitation (FLT of TMR-cC0-C2 in presence of FMAL-actin); format: binding, human; details: for 532-nm Δτ, Repeat 1 / 532-nm Δτ, Repeat 2: initial screen, 30 μM compound; for 532-nm z-score (based on avg Δτ): robust z-score, hit threshold ±4, 30 μM compound
[1] = tested on: PKA-phosphorylated TMR-cC0-C2 (cC0-C2#P); assay: FLT-TMR concentration-response assay, PKA-phosphorylated cC0-C2; format: binding, human; details: for cC0-C2#P FLT change (% change from DMSO, FLT of TMR-MyBP-C): 60 μM compound; for effect on FLT of PKA-phosphorylated TMR-cC0-C2 (in words): concentration-response, no actin
Method in brief: (§1)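 Hits tested at eight concentrations (0.5–100 μM) and read on a high-throughput fluorescence lifetime plate reader. Hill fits applied only under certain conditions.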

[2] = tested on: FMAL-actin/PKA-phosphorylated TMR-cC0-C2 interaction; assay: FLT-FRET concentration-response assay, FMAL-actin plus PKA-phosphorylated TMR-cC0-C2; format: binding, human
Method: (§2) Compounds identified as initial hits were further examined to determine the concentration–response curves for seven conditions ([1]): FMAL-actin alone identified actin-binding compounds that alter the FLT of FMAL-actin ([2]).
(§3) Fluorescence lifetime (FLT) measurements were acquired using a high-throughput FLT plate reader (Fluorescence Innovations, Inc) ([14], [27]), provided by Photonic Pharma LLC. […] The observed waveforms were analyzed as described previously ([15], [28]).
(§4) The primary hits were dissolved in DMSO to make a 10 mM stock solution, which was serially diluted in 96-well mother plates. Hits were screened at eight concentrations (0.5–100 μM). […] Compounds (1 μl) were transferred from the mother plates into 384-well plates using a Mosquito HV liquid handler (TTP Labtech Ltd, Hertfordshire, UK). The same procedure of dispensing as for the pilot screening was applied in the concentration-response assays. Concentration dependence of the FLT-FRET (E/EDMSO) or FLT-TMR (Δτ) change data was fit to a Hill equation only under certain conditions to help guide the eye (Fig. 4).

[3] = tested on: FMAL-actin/TMR-fC1-C2 interaction; assay: FLT-FRET concentration-response assay, FMAL-actin plus TMR-fC1-C2; format: binding
Method: as §2, §3, §4

[4] = tested on: FMAL-actin/TMR-cC0-C2 interaction; assay: FLT-FRET concentration-response assay, FMAL-actin plus TMR-cC0-C2; format: binding, human; details: for specificity of FLT-FRET effect for unphosphorylated over phosphorylated cC0-C2: effect on cC0-C2 compared to phosphorylated cC0-C2 (Tables 1 and 2); for effect on FLT-FRET / binding between FMAL-actin and TMR-cC0-C2 (in words): unphosphorylated cC0-C2
Method in brief: as §1

[5] = tested on: TMR-fC1-C2 (C1-C2 of fast skeletal MyBP-C); assay: FLT-TMR concentration-response assay, fC1-C2; format: binding; details: for cC0-C2/fC1-C2 (ratio of FLT changes) / fC1-C2 FLT change (% change from DMSO, FLT of TMR-MyBP-C): 60 μM compound; for difference in effect on TMR FLT between unphosphorylated TMR-cC0-C2 and TMR-fC1-C2: from Table 3; for effect on FLT of TMR-fC1-C2 (in words): concentration-response, no actin
Method in brief: as §1

[6] = tested on: TMR-cC0-C2 (C0-C2 fragment of human cMyBP-C); assay: FLT-TMR concentration-response assay (FLT of TMR on cC0-C2, no actin); format: binding; details: for cC0-C2/cC0-C2#P (ratio of FLT changes) / cC0-C2 FLT change (% change from DMSO, FLT of TMR-MyBP-C): 60 μM compound; for effect on FLT of TMR-cC0-C2 (in words): concentration-response, no actin; for difference in effect on TMR FLT between unphosphorylated and phosphorylated TMR-cC0-C2: from Table 3
Method in brief: as §1

[7] = tested on: FMAL-actin plus TMR-cC0-C2; assay: Selleck library HTS, 473 nm excitation (FLT of FMAL-actin with TMR-cC0-C2, FLT-FRET); format: binding, human; details: for 473-nm Δτ, Repeat 1 / 473-nm Δτ, Repeat 2: initial screen, 30 μM compound; for 473-nm z-score (based on avg Δτ): robust z-score, hit threshold ±4, 30 μM compound
Method in brief: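 Donor fluorescence lifetime was then recorded. Waveforms were fit to a single exponential, and ΔFLT was obtained after a moving-median plate-gradient correction (half-row window), rescaled by the median DMSO lifetime.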

## COc1cc(Nc2ncc(F)c(Nc3ccc4c(n3)N(COP(=O)(O)O)C(=O)C(C)(C)O4)n2)cc(OC)c1OC [Fostamatinib (R788), Fostamatinib]
TMR-cC0-C2
  532-nm Δτ, Repeat 1: -0.027 ns
  532-nm Δτ, Repeat 2: -0.063 ns
  532-nm z-score (based on avg Δτ): -2.72
[1]
  cC0-C2#P FLT change (% change from DMSO, FLT of TMR-MyBP-C): 0.7%
[2]
  effect on FLT-FRET / binding between FMAL-actin and PKA-phosphorylated TMR-cC0-C2 (in words): decreased
[3]
  effect on FLT-FRET / binding between FMAL-actin and TMR-fC1-C2 (in words): decreased
[4]
  specificity of FLT-FRET effect for unphosphorylated over phosphorylated cC0-C2: 5 fold
  effect on FLT-FRET / binding between FMAL-actin and TMR-cC0-C2 (in words): decreased
[5]
  cC0-C2/fC1-C2 (ratio of FLT changes): 5.8
  fC1-C2 FLT change (% change from DMSO, FLT of TMR-MyBP-C): 0.4%
  difference in effect on TMR FLT between unphosphorylated TMR-cC0-C2 and TMR-fC1-C2: 5.8 fold
[6]
  cC0-C2/cC0-C2#P (ratio of FLT changes): 3.3
  cC0-C2 FLT change (% change from DMSO, FLT of TMR-MyBP-C): 2.3%
  effect on FLT of TMR-cC0-C2 (in words): affect
  difference in effect on TMR FLT between unphosphorylated and phosphorylated TMR-cC0-C2: 3.3 fold
[7]
  473-nm Δτ, Repeat 1: 0.110 ns
  473-nm Δτ, Repeat 2: 0.046 ns
  473-nm z-score (based on avg Δτ): 4.40

## Clc1ccc(C(Cn2ccnc2)OCc2ccc(Sc3ccccc3)cc2)c(Cl)c1 (stereo not shown) [Fenticonazole nitrate]
TMR-cC0-C2
  532-nm Δτ, Repeat 1: -0.011 ns
  532-nm Δτ, Repeat 2: -0.035 ns
  532-nm z-score (based on avg Δτ): -1.35
[1]
  cC0-C2#P FLT change (% change from DMSO, FLT of TMR-MyBP-C): −6.0%
  effect on FLT of PKA-phosphorylated TMR-cC0-C2 (in words): slightly decreases
[2]
  preference for increasing the binding of phosphorylated over unphosphorylated cC0-C2 (FLT-FRET): 5 fold
  effect on FLT-FRET / binding between FMAL-actin and PKA-phosphorylated TMR-cC0-C2 (in words): increases
[3]
  effect on FLT-FRET / binding between FMAL-actin and TMR-fC1-C2 (in words): does not have any effect
[4]
  effect on FLT-FRET / binding between FMAL-actin and TMR-cC0-C2 (in words): does not have any effect
[5]
  cC0-C2/fC1-C2 (ratio of FLT changes): 11.8
  fC1-C2 FLT change (% change from DMSO, FLT of TMR-MyBP-C): 0.4%
  effect on FLT of TMR-fC1-C2 (in words): does not affect
  difference in effect on TMR FLT between unphosphorylated TMR-cC0-C2 and TMR-fC1-C2: 11.8 fold
[6]
  cC0-C2/cC0-C2#P (ratio of FLT changes): 0.8
  cC0-C2 FLT change (% change from DMSO, FLT of TMR-MyBP-C): −4.7%
  effect on FLT of TMR-cC0-C2 (in words): slightly decreases
[7]
  473-nm Δτ, Repeat 1: -0.069 ns
  473-nm Δτ, Repeat 2: -0.104 ns
  473-nm z-score (based on avg Δτ): -4.80

## Tocofersolan
TMR-cC0-C2
  532-nm Δτ, Repeat 1: 0.072 ns
  532-nm Δτ, Repeat 2: 0.065 ns
  532-nm z-score (based on avg Δτ): 4.23
[1]
  cC0-C2#P FLT change (% change from DMSO, FLT of TMR-MyBP-C): 3.2%
[2]
  effect on FLT-FRET / binding between FMAL-actin and PKA-phosphorylated TMR-cC0-C2 (in words): no effect
[3]
  effect on FLT-FRET / binding between FMAL-actin and TMR-fC1-C2 (in words): affected the binding to actin
[4]; comparison not given
  fold effect on increased FRET (or binding) (Table 2): fivefold or greater
[4]
  specificity of FLT-FRET effect for unphosphorylated over phosphorylated cC0-C2: 13–54 fold
  effect on FLT-FRET / binding between FMAL-actin and TMR-cC0-C2 (in words): affected the binding to actin
[5]
  cC0-C2/fC1-C2 (ratio of FLT changes): 1.2
  fC1-C2 FLT change (% change from DMSO, FLT of TMR-MyBP-C): 2.8%
[6]
  cC0-C2/cC0-C2#P (ratio of FLT changes): 1.0
  cC0-C2 FLT change (% change from DMSO, FLT of TMR-MyBP-C): 3.3%
[7]
  473-nm Δτ, Repeat 1: -0.166 ns
  473-nm Δτ, Repeat 2: -0.159 ns
  473-nm z-score (based on avg Δτ): -9.06

## CCC(=O)O[C@H]1[C@H](O[C@@H]2[C@@H](C)[C@H](O[C@H]3C[C@@](C)(OC)[C@@H](O)[C@H](C)O3)[C@@H](C)C(=O)O[C@H](CC)[C@@](C)(O)[C@H](O)[C@@H](C)C(=O)[C@H](C)C[C@@]2(C)O)O[C@H](C)C[C@@H]1N(C)C [Erythromycin estolate]
TMR-cC0-C2
  532-nm Δτ, Repeat 1: 0.002 ns
  532-nm Δτ, Repeat 2: -0.031 ns
  532-nm z-score (based on avg Δτ): -0.86
[1]
  cC0-C2#P FLT change (% change from DMSO, FLT of TMR-MyBP-C): −2.4%
  effect on FLT of PKA-phosphorylated TMR-cC0-C2 (in words): decreases
[2]
  effect on FLT-FRET / binding between FMAL-actin and PKA-phosphorylated TMR-cC0-C2 (in words): decreased
[2]; listed as Erthromycin estolate
  effect on FLT-FRET / binding between FMAL-actin and PKA-phosphorylated TMR-cC0-C2 (in words): biphasic effect
[3]
  effect on FLT-FRET / binding between FMAL-actin and TMR-fC1-C2 (in words): decreased
[3]; listed as Erthromycin estolate
  effect on FLT-FRET / binding between FMAL-actin and TMR-fC1-C2 (in words): biphasic effect
[4]
  effect on FLT-FRET / binding between FMAL-actin and TMR-cC0-C2 (in words): decreased
[4]; listed as Erthromycin estolate
  effect on FLT-FRET / binding between FMAL-actin and TMR-cC0-C2 (in words): biphasic effect
[5]
  cC0-C2/fC1-C2 (ratio of FLT changes): 6.7
  fC1-C2 FLT change (% change from DMSO, FLT of TMR-MyBP-C): −2.1%
  effect on FLT of TMR-fC1-C2 (in words): decreases
  difference in effect on TMR FLT between unphosphorylated TMR-cC0-C2 and TMR-fC1-C2: 6.7 fold
[6]
  cC0-C2/cC0-C2#P (ratio of FLT changes): 5.9
  cC0-C2 FLT change (% change from DMSO, FLT of TMR-MyBP-C): −14.1%
  effect on FLT of TMR-cC0-C2 (in words): affect
  difference in effect on TMR FLT between unphosphorylated and phosphorylated TMR-cC0-C2: 5.9 fold
[6]; listed as Erthromycin estolate
  effect on FLT of TMR-cC0-C2 (in words): decreases
[7]
  473-nm Δτ, Repeat 1: 0.149 ns
  473-nm Δτ, Repeat 2: 0.101 ns
  473-nm z-score (based on avg Δτ): 7.01
